Experimental data from patent US6967196B1, “Sulfonamide compounds and uses thereof” (Bristol-Myers Squibb Company, priority 1999, dated 2005).
Where a name gives a salt, the structure may show the parent alone. Read-outs that look alike come from different tables or passages of the source.

Tested on: amyloid β production in transfected H4 (human neuroglioma) cells stably expressing APP constructs
Assay: In vitro cell-based assay of inhibitors of amyloid β production (ELISA)
Settings: amyloid β in medium by ELISA
Summary of the method: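 Aβ secreted into the medium was determined by a two-antibody ELISA specific for the Aβ C-terminus, calibrated with known Aβ amounts. Before that, compounds (10-100 μM initially) were left on the cells for roughly 16 hours.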

[1] = Homo sapiens, 16 h, transfected H4 cells stably expressing APP, approx. 16 h incubation, read-out: ACTIVITY (IC50, inhibition of amyloid β production)
[2] = Homo sapiens, 16 h, transfected H4 cells stably expressing APP constructs, approximately 16 hours incubation, read-out: ACTIVITY (IC50, inhibition of amyloid β production)
[3] = Homo sapiens, 16 h, transfected H4 cells stably expressing APP, approximately 16 hours incubation, Table B, read-out: ACTIVITY (IC50, inhibition of amyloid β production)
[4] = Homo sapiens, 16 h, transfected H4 cells stably expressing APP, approximately 16 hours incubation, read-out: ACTIVITY (IC50, inhibition of amyloid β production)
[5] = Homo sapiens, 16 h, transfected H4 cells expressing APP, approximately 16 hours incubation, read-out: ACTIVITY (IC50, inhibition of amyloid β production)
[6] = transfected H4 cells stably expressing APP, approximately 16 hours incubation, read-out: ACTIVITY (IC50, inhibition of amyloid β production)
[7] = transfected H4 cells stably expressing APP constructs, approximately 16 hours incubation, read-out: ACTIVITY (IC50, inhibition of amyloid β production)
[8] = transfected H4 cells stably expressing APP, approx. 16 h incubation, read-out: ACTIVITY (IC50, inhibition of amyloid β production)

Compound: CC(c1ccccc1OCCCN(C)S(=O)(=O)c1ccc(Cl)cc1)N(c1cc(F)ccc1F)S(=O)(=O)c1ccc(Cl)cc1 (stereo not shown) [Example 794, 4-chloro-N-[1-(2-{3-[[(4-chlorophenyl)sulfonyl](methyl)amino]propoxy}phenyl)ethyl]-N-(2,5-difluorophenyl)benzenesulfonamide]
- IC50 [1]: 100 to 500 nM

Compound: COC(=O)C1SCCN1CC[C@@H](C)N(c1cc(Cl)ccc1Cl)S(=O)(=O)c1ccc(Cl)cc1 (stereo partly drawn) [Example 1119, 4-chloro-N-(2,5-dichlorophenyl)-N-[3-(2-methoxycarbonyl-3-thiazolidinyl)-1(R)-methylpropyl]benzenesulfonamide]
- IC50 [2]: 25 to 50 nM

Compound: C[C@H](c1ccccc1CCC(=O)NC1CCCCC1)N(c1cc(F)ccc1F)S(=O)(=O)c1ccc(Cl)cc1 [Example 401, 3-[2-((1R)-1-{[(4-chlorophenyl)sulfonyl]-2,5-difluoroanilino}ethyl)phenyl]-N-cyclohexylpropanamide]
- IC50 [3]: 50 to 100 nM

Compound: C[C@H](c1ccccc1CCC(=O)Nc1ccccc1)N(c1cc(F)ccc1F)S(=O)(=O)c1ccc(Cl)cc1 [Example 403, 3-[2-((1R)-1-{[(4-chlorophenyl)sulfonyl]-2,5-difluoroanilino}ethyl)phenyl]-N-phenylpropanamide]
- IC50 [3]: 50 to 100 nM

Compound: CS(=O)(=O)c1cccc(N(Cc2ccccc2OCCCN2CCCCC2)S(=O)(=O)c2ccc(Cl)cc2)c1 [Example 1036, 4-chloro-N-[3-(methylsulfonyl)phenyl]-N-{2-[3-(1-piperidinyl)propoxy]benzyl}benzenesulfonamide hydrochloride]
- IC50 [4]: > 500 nM

Compound: CCN(CC)CCCC(C)NC(=O)[C@@H](C)N(c1cc(Cl)ccc1F)S(=O)(=O)c1ccc(Cl)cc1 (stereo partly shown) [Example 1312]
- IC50 [5]: > 500 nM

Compound: 4-benzoyl-N-((1S)-1-{{(3-[2-({[(4-chlorophenyl)sulfonyl]-2,5-difluoroanilino}methyl)phenoxy]propyl}(methyl)amino]carbonyl}-5-{[5-(2-oxohexahydro- [Example 1053]
- IC50 [6]: > 500 nM

Compound: C[C@H](CCC[N+](=O)[O-])N(c1cc(Cl)ccc1Cl)S(=O)(=O)c1ccc(Cl)cc1 [Example 1099, 4-chloro-N-(2,5-dichlorophenyl)-N-[4-nitro-1(R)-methylbutyl]benzenesulfonamide]
- IC50 [2]: ≤ 25 nM

Compound: C[C@H](C(=O)NCCc1c(Cl)cccc1Cl)N(c1cc(Cl)ccc1F)S(=O)(=O)c1ccc(Cl)cc1 [Example 1314]
- IC50 [5]: 100 to 500 nM

Compound: COC(=O)[C@H](CC(C)C)NC(=O)CCCC[C@@H](C)N(c1cc(Cl)ccc1F)S(=O)(=O)c1ccc(Cl)cc1 [Example 1258, (R)-4-Chloro-N-(5-chloro-2-fluorophenyl)-N-[6-[N-(S)-[1-(methoxycarbonyl)-3-methylbutyl]amino]-1-methyl-6-oxohexyl]benzenesulfonamide]
- IC50 [7]: ≤ 25 nM

Compound: C[C@H](c1ccccc1OCCCN1CCCCC1)N(c1cc(Cl)ccc1CO)S(=O)(=O)c1ccc(Cl)cc1 [Example 1062, 4-chloro-N-[5-chloro-2-(hydroxymethyl)phenyl]-N-((1R)-1-{2-[3-(1-piperidinyl)propoxy]phenyl}ethyl)benzenesulfonamide hydrochloride]
- IC50 [4]: > 500 nM

Compound: O=C(/C=C\c1ccccc1)N1CCCCC1CCOc1ccccc1CN(c1cc(F)ccc1F)S(=O)(=O)c1ccc(Cl)cc1 (stereo not shown) [Example 832, 4-chloro-N-(2,5-difluorophenyl)-N-[2-(2-{1-[(2Z)-3-phenyl-2-propenoyl]-2-piperidinyl}ethoxy)benzyl]benzenesulfonamide]
- IC50 [4]: 100 to 500 nM

Compound: COc1ccc([S+]([O-])CCCOc2ccccc2CN(c2cc(F)ccc2F)S(=O)(=O)c2ccc(Cl)cc2)cc1 (stereo not shown) [Example 803, 4-chloro-N-(2,5-difluorophenyl)-N-(2-{3-[(4-methoxyphenyl)sulfinyl]propoxy}benzyl)benzenesulfonamide]
- IC50 [1]: 100 to 500 nM

Compound: C[C@H](C(=O)NCC1CCCO1)N(c1cc(Cl)ccc1F)S(=O)(=O)c1ccc(Cl)cc1 (stereo partly shown) [Example 1321]
- IC50 [5]: 100 to 500 nM

Compound: N-{3-[2-({[(4-chlorophenyl)sulfonyl]-2,5-difluoroanilino}methyl)phenoxy]propyl}-2,4,5-trifluoro-N-methylbenzamide [Example 813]
- IC50 [6]: 100 to 500 nM

Compound: C[C@H](CCCN1CCC(S(C)(=O)=O)CC1)N(c1cc(Cl)ccc1Cl)S(=O)(=O)c1ccc(Cl)cc1 [Example 1126, 4-chloro-N-(2,5-dichlorophenyl)-N-[4-[(4-methylsulfonyl)-1-piperidinyl]-1(R)-methylbutyl]benzenesulfonamide]
- IC50 [7]: 50 to 100 nM

Compound: N-{2-[2-(1-{[(4-chlorophenyl)sulfonyl]-2,5-difluoroanilino}ethyl)phenoxy]ethyl}-N-methylcyclohexanecarboxamide [Example 511]
- IC50 (transfected H4 cells stably expressing APP, approximately 16 hours incubation, Table B, read-out: ACTIVITY (IC50, inhibition of amyloid β production)): 100 to 500 nM

Compound: N-{3-[2-(1-{[(4-chlorophenyl)sulfonyl]-2,5-difluoroanilino}ethyl)phenoxy]propyl}-2,4-dimethoxy-N-methylbenzamide [Example 753]
- IC50 [8]: 100 to 500 nM

Compound: N-{4-[2-(1-{[(4-chlorophenyl)sulfonyl]-2,5-difluoroanilino}ethyl)phenoxy]butyl}-3-cyclopentyl-N-ethylpropanamide [Example 943]
- IC50 [6]: > 500 nM

Compound: CC(C)C[C@@H](NC(=O)CCC[C@@H](C)N(c1cc(Cl)ccc1F)S(=O)(=O)c1ccc(Cl)cc1)C(=O)O [Example 1271, (R)-4-Chloro-N-(5-chloro-2-fluorophenyl)-N-[5-[N-(R)-[1-(carboxy)-3-methylbutyl]amino]-1-methyl-5-oxopentyl]benzenesulfonamide]
- IC50 [7]: 50 to 100 nM

Compound: O=S(=O)(c1ccc(Cl)cc1)N(Cc1ccccc1OCCC[N+]1([O-])CCCCC1)c1ccccc1 [Example 883]
- IC50 [6]: > 500 nM

Compound: O=S(=O)(c1ccc(Cl)cc1)N(Cc1ccccc1OCCCN1CCCCC1)C1CCc2ccccc21 (stereo not shown) [Example 1012, 4-chloro-N-(2,3-dihydro-1H-inden-1-yl)-N-{2-[3-(1-piperidinyl)propoxy]benzyl}benzenesulfonamide hydrochloride]
- IC50 [4]: > 500 nM

Compound: C[C@H](COC(=O)NCCN1CCCCC1)N(c1cc(Cl)ccc1Cl)S(=O)(=O)c1ccc(Cl)cc1 [Example 1242]
- IC50 [7]: ≤ 25 nM

Compound: CSC1CCCN(CC[C@@H](C)N(c2cc(Cl)ccc2Cl)S(=O)(=O)c2ccc(Cl)cc2)C1 (stereo partly drawn) [Example 1142, 4-chloro-N-(2,5-dichlorophenyl)-N-[3-[(3-methylthio)-1-piperidinyl]-1(R)-methylpropyl]benzenesulfonamide]
- IC50 [7]: 100 to 500 nM

Compound: O=S(=O)(c1ccc(Cl)cc1)N(Cc1cc(Cl)ccc1C#CCCO)c1ccccc1 [Example 1089, 4-chloro-N-[5-chloro-2-(4-hydroxy-1-butynyl)benzyl]-N-phenylbenzenesulfonamide]
- IC50 [2]: > 10000 nM

Compound: C[C@H](CCCOC(=O)N(C)CCO)N(c1cc(Cl)ccc1CO)S(=O)(=O)c1ccc(Cl)cc1 [Example 1297]
- IC50 [5]: ≤ 25 nM

Compound: 2-((1R)-1-{[(4-chlorophenyl)sulfonyl]-2,5-difluoroanilino}ethyl)benzyl 2-(diethylamino)ethylcarbamate [Example 662]
- IC50 [8]: 100 to 500 nM

Compound: COC(=O)[C@@H](NC(=O)CC[C@@H](C)N(c1cc(Cl)ccc1F)S(=O)(=O)c1ccc(Cl)cc1)C(C)C [Example 1257, (R)-4-Chloro-N-(5-chloro-2-fluorophenyl)-N-[4-[N-(S)-[1-(methoxycarbonyl)-2-methylpropyl]amino]-1-methyl-4-oxobutyl]benzenesulfonamide]
- IC50 [7]: 50 to 100 nM

Compound: C[C@H](C(=O)NCc1cc(F)ccc1F)N(c1cc(Cl)ccc1F)S(=O)(=O)c1ccc(Cl)cc1 [Example 1356]
- IC50 (transfected H4 cells expressing APP, approximately 16 hours incubation, read-out: ACTIVITY (IC50, inhibition of amyloid β production)): > 500 nM

Compound: C[C@H](c1ccccc1Cn1ccnc1)N(c1cc(F)ccc1F)S(=O)(=O)c1ccc(Cl)cc1 [Example 438, 4-chloro-N-(2,5-difluorophenyl)-N-{(1R)-1-[2-(1H-imidazol-1-ylmethyl)phenyl]ethyl}benzenesulfonamide hydrochloride]
- IC50 [3]: 50 to 100 nM

Compound: C[C@H](C(=O)NCc1ccccn1)N(c1cc(Cl)ccc1F)S(=O)(=O)c1ccc(Cl)cc1 [Example 1341]
- IC50 [5]: 100 to 500 nM

Compound: CC(=O)Nc1nc(C)c(S(=O)(=O)N(Cc2ccccc2OCCCN2CCCCC2)c2cc(Cl)ccc2Cl)s1 [Example 259, N-{5-[(2,5-dichloro{2-[3-(1-piperidinyl)propoxy]benzyl}anilino)sulfonyl]-4-methyl-1,3-thiazol-2-yl}acetamide Hydrochloride]
- IC50 (Table B, transfected H4 cells stably expressing APP, approximately 16 hours incubation, read-out: ACTIVITY (inhibitory concentration IC50, inhibition of amyloid β production)): 25 to 50 nM

Compound: methyl (2S)-2-[[2-((1R)-1-{[(4-chlorophenyl)sulfonyl]-2,5-difluoroanilino}ethyl)benzyl](methyl)amino]propanoate [Example 779]
- IC50 [8]: 100 to 500 nM

Compound: (R)-4-Chloro-N-(2,5-difluorophenyl)-N-[1-[4-fluoro-2-[1-(1,1-dioxo-2-methyl-4-thiomorpholinyl)butanoyl]phenyl]ethyl]benzenesulfonamide [Example 1277]
- IC50 [7]: ≤ 25 nM
